Series [1] in a line: Hydrodynamic diameter and colloidal stability of aggregates by dynamic light scattering. It counts as physicochemical. As to conditions: for mean size (hydrodynamic diameter) / zeta potential: 37 °C; for PDI: sd^2/mean size^2. Here is the method:
In contrary, all spectra gave a hypsochromic shift and loss of fine-structure when the DMSO solutions were diluted with PBS, which refers to the formation of H-type (card-pack) aggregates (Figures S1–S12). Since DMSO-containing aqueous systems are more suitable for biological studies, we examined these solution by dynamic light scattering (DLS) spectroscopy to gain more information about the particles. The concentrations of the examined solutions were the same as used in the ABTS/TEAC measurements (0.3125–5.00 μM, see next section).
Size determination of aggregates and the colloidal stability of the sample dispersions were determined by dynamic light scattering measurements, where the hydrodynamic diameter of particles, and zeta potential values were collected. The number-weighted size distribution indicated one main peak in each case, the polydispersity index (PDI) was calculated as sd^2/mean size^2. For the particle size analysis Malvern Zetasizer Nano S instrument and for the zeta potential determination Malvern Zetasizer Nano Z instrument were used (Malvern Panalytical Ltd., Great Malvern, Worcestershire, UK). The measurements were carried out in autocorrelation mode, and the following parameters were kept constant: scattering angle 173°, attenuator 11 and its factor 0.0146, measurement position 4.65 mm. The concentrations of sample dispersions were between 0.3125 and 5 µM. The dispersion medium was PBS. Each samples was examined after 6 min incubation period at 37 °C.

Series [2] can be described thus: TEAC assay using ABTS radical. Particulars: 6 min, ratio of slopes to trolox (melatonin dissolved in EtOH); for TEAC from DMSO: stock in DMSO diluted with PBS pH 7.4, 37 °C; for TEAC from THF: stock in THF diluted with PBS pH 7.4, 37 °C. Here is the method:
This method uses a redox reaction between ABTS^•+ radical cation and the examined antioxidants, which act as the reducing agents. […] As the carotenoids and the conjugates are poorly soluble in water, they were dissolved first either in small amounts of freshly distilled tetrahydrofuran (THF) or in dimethylsulfoxide (DMSO), and these stock solutions were diluted with phosphate-buffered saline (PBS) to the final nominal concentration.
The TEAC values were determined in isotonic phosphate buffer of pH 7.4. The buffer solution was made by dissolving 9.55 g of DPBS powder in distilled water to form 1L of solution (composition: 0.138 M NaCl, 0.0027 M KCl, 0.0081 M Na2HPO4, 0.0015 M KH2PO4). The assay was performed according to a literature process with slight modifications. The ABTS^•+ radical cation was produced by reacting 7 mM 2,2′-azino-bis(3-ethylbenzothiazoline-6-sulfonic acid) and 2.45 mM potassium persulfate in water. The stock ABTS^•+ solution was prepared 12–16 h before the experiments, and stored at room temperature in dark. The absorbance of the ABTS^•+ solution was set to 0.70 ± 0.05 at 734 nm by a ca. 100-fold dilution with phosphate-buffered saline (PBS). […] The stock solutions were diluted with PBS such that equal amounts of the diluted solutions were added to the ABTS^•+ reagent to obtain final antioxidants concentrations of 0.3125, 0.625, 1.25, 2.50, 3.75, 5 μM, respectively. In the blank (0 μM), the solutions of the antioxidants were substituted with THF or DMSO.
The antioxidants were incubated with ABTS^•+ solution at 37 °C for 6 min. During the reaction of ABTS^•+ with the antioxidants the absorbance of the solution decreases. The percentage inhibition of absorbance at 734 nm was calculated as (A0 − Aantioxidant)/A0, where A0 is the absorbance of the ABTS^•+ solution and Aantioxidant is the absorbance measured after the addition of the antioxidant. The determinations were carried out at each concentration in triplicate. The calculated values were plotted against the final concentration of the antioxidants. The slopes of the curves were compared with that for trolox, the TEAC value is the ratio of the slopes for the antioxidant and for trolox.

Series [3] in a line: FRAP assay for the antioxidant capacity. Particulars: stock in THF, acetate buffer pH 3.0, 37 °C, 15 min; ratio of slopes to trolox (melatonin in EtOH). The arrangement: key to FRAP: slope of concentration-absorbance line divided by Trolox slope. Here is the method:
In the FRAP method the antioxidant reduces Fe^3+ to Fe^2+ in an acidic medium. These experiments were performed in an acetate buffer of pH 3.0, the stock solutions of the examined antioxidants were prepared in THF. The antioxidant capacities were compared to that of Trolox as a standard, just like in the ABTS assays.
A modified literature process was used. The FRAP reagent should also be prepared freshly each day. 2,4,6-Tris(2-pyridyl)-s-triazin (TPTZ) was dissolved in a 200 mM HCl solution and diluted with water to get a final 40 mM HCl and 10 mM TPTZ concentration. For the preparation of the FRAP reagent 30 mL of 20 mM FeCl3 solution and 30 mL of 10 mM TPTZ solution were mixed, and 300 mL of 300 mM acetate buffer with pH 3.0 was added (a pH lower than usual was used to avoid the precipitation of the TPTZ). The FRAP reagent was incubated at 37 °C for 15 min. 150 μL of antioxidant dissolved in THF was mixed with 2.85 mL FRAP reagent solution, and incubated at 37 °C for 15 min in dark. Measurements were carried out at each antioxidant concentration (0, 7.5; 10; 12.5; 15; 17.5 μM final concentration) in triplicate. In the 0 μM solution the antioxidant solution was substituted with acetate buffer (pH 3.0). The FRAP was determined at 600 nm: the absorbance values were plotted as a function of concentration of the sample compounds and that of Trolox for the standard reference data. The FRAP values were calculated as in the ABTS assays, i.e., the slope of the concentration-absorbance lines for the carotenoid derivatives was divided by that for the trolox.

Series [4] in a line: Study of aggregation by UV-Vis spectrophotometry. It counts as physicochemical. As to conditions: for type of aggregates formed: from THF:aqueous solutions; for change of UV spectrum with increasing ratio of PBS: starting from THF solutions. The source says: It has been known for a long while that carotenoids or their derivatives can be prone to supramolecular organization in water or water-organic solvent mixtures. This behaviour is especially interesting because this higher organization can modulate or alter biological properties of carotenoids, as well [40]. A tendency to form supramolecular structures can be tested by recording the UV spectra in an organic solvent and increasing the ratio of water in the sample. […] We have some recent experience of such behaviour of carotenoid-flavonoid conjugates.
All of our adducts were tested with the method above using tetrahydrofurane (THF) or dimethylsulfoxide (DMSO) with increasing ratio of phosphate-buffered saline (PBS), which was the medium of the antioxidant measurements. […]
1. Study of Aggregation by UV-Vis Spectrophotometry
Starting from THF solutions: each conjugate was dissolved in freshly distilled THF and the solutions were diluted
either with THF or THF-PBS mixtures to obain final solutions of identical carotenoid concentration. […]
Figure S1. UV-spectra of 8’-apo-β-carotenol succinate ( 6) ( a) in THF and in THF-PBS mixtures ( 1:1 , 1:3); (b) in DMSO
Figure S2. UV-spectra of zeaxanthin bissuccinate ( 7) ( a) in THF and in THF-PBS mixtures ( 1:1 , 1:3); (b) in DMSO and
Figure S3. UV-spectra of zeaxanthin monosuccinate ( 11) ( a) in THF and in THF-PBS mixtures ( 1:1 , 1:3); (b) in DMSO […]

[5] abbreviates: 0.3125 μM in PBS from DMSO stock.
Where [6] appears, read: 0.625 μM in PBS from DMSO stock.

From publication PMC9369794 (Molecules, 2022) come the findings set out here.

`COc1ccc2[nH]cc(CCNC(=O)CNC(=O)CCC(=O)O[C@@H]3CC(C)=C(/C=C/C(C)=C/C=C/C(C)=C/C=C/C=C(C)/C=C/C=C(C)/C=C/C4=C(C)C[C@@H](OC(=O)CCC(=O)NCC(=O)NCCc5c[nH]c6ccc(OC)cc56)CC4(C)C)C(C)(C)C3)c2c1` [Compound 14, Zeaxanthin-bismelatonin conjugate] displayed a melting point of 149 to 150 °C. Further, in series [1] (setting [5]), the “mean size (hydrodynamic diameter)” value is “too large for DLS” and the zeta potential is on record as −0.7 mV. In series [1] (setting [6]), the “mean size (hydrodynamic diameter)” value was “too large for DLS” and the zeta potential is recorded as −0.7 mV. Further, in series [1] (1.25 μM in PBS from DMSO stock), the “mean size (hydrodynamic diameter)” value is reported as “too large for DLS” and the zeta potential was −1.0 mV. Also, in series [1] (2.5 μM in PBS from DMSO stock), the “mean size (hydrodynamic diameter)” value was 137.50 nm and the zeta potential is given as −0.4 mV. In series [1] (2.5 μM in PBS), the PDI worked out at 0.0147. In series [1] (3.75 μM in PBS from DMSO stock), the “mean size (hydrodynamic diameter)” value amounted to 91.77 nm and the zeta potential is listed as −0.2 mV. In series [1] (3.75 μM in PBS), the PDI came out at 0.0108. In series [1] (5 μM in PBS from DMSO stock), the “mean size (hydrodynamic diameter)” value was 705.10 nm and the zeta potential is reported as 0.0 mV. The same compound showed a PDI in series [1] (5 μM in PBS) of 0.0659. In series [2], the “TEAC from DMSO” value is 2.79 and the “TEAC from THF” value is recorded as 2.080. In addition, the FRAP in series [3] turned out to be 0.206. Also, in series [4], the “type of aggregates formed” value was “J-type (head-to-tail) aggregates” and the “change of UV spectrum with increasing ratio of PBS” value was “bathochromic shift”.

Consider `COc1ccc2[nH]cc(CCNC(=O)CNC(=O)CCC(=O)O[C@@H]3CC(C)=C(/C=C/C(C)=C/C=C/C(C)=C/C=C/C=C(C)/C=C/C=C(C)/C=C/C4=C(C)CCCC4(C)C)C(C)(C)C3)c2c1` [Compound 15, Cryptoxanthin-melatonin conjugate], for which the melting point was 153 to 154 °C. In addition, in series [1] (setting [5]), the “mean size (hydrodynamic diameter)” value was found to be 29.79 nm and the zeta potential was −13.4 mV. In addition, the PDI in series [1] (0.3125 μM in PBS) was 0.0356. Further, in series [1] (setting [6]), the “mean size (hydrodynamic diameter)” value was determined as 31.22 nm and the zeta potential is on record as −23.5 mV. The compound also yielded a PDI in series [1] (0.625 μM in PBS) of 0.1230. In series [1] (1.25 μM in PBS from DMSO stock), the “mean size (hydrodynamic diameter)” value is given as 74.91 nm and the zeta potential was −20.8 mV. The compound further showed a PDI in series [1] (1.25 μM in PBS) of 0.1051. In series [1] (2.5 μM in PBS from DMSO stock), the “mean size (hydrodynamic diameter)” value is 305.10 nm and the zeta potential was −20.4 mV. In addition, the PDI in series [1] (2.5 μM in PBS) is listed as 0.1649. In series [1] (3.75 μM in PBS from DMSO stock), the “mean size (hydrodynamic diameter)” value was 826.80 nm and the zeta potential was −11.8 mV. The PDI in series [1] (3.75 μM in PBS) was found to be 0.0840. In series [1] (5 μM in PBS from DMSO stock), the “mean size (hydrodynamic diameter)” value is listed as 615.10 nm and the zeta potential is given as −15.7 mV. Besides, the PDI in series [1] (5 μM in PBS) was 0.0992. The “TEAC from THF” value in series [2] was determined as 1.777. In addition, the FRAP in series [3] is reported as 0.154. In addition, in series [4], the “type of aggregates formed” value is recorded as “J-type (head-to-tail) aggregates” and the “change of UV spectrum with increasing ratio of PBS” value is “bathochromic shift”.

With `COc1ccc2[nH]cc(CCNC(=O)CNC(=O)CCC(=O)O[C@@H]3CC(C)=C(/C=C/C(C)=C/C=C/C(C)=C/C=C/C=C(C)/C=C/C=C(C)/C=C/C4C(C)=C[C@@H](OC(=O)CCC(=O)NCC(=O)NCCc5c[nH]c6ccc(OC)cc56)CC4(C)C)C(C)(C)C3)c2c1` (some centres unmarked) [Compound 16, Lutein-bismelatonin conjugate], the melting point lay in the range of 123 to 124 °C. In series [1] (setting [5]), the “mean size (hydrodynamic diameter)” value amounted to 131.20 nm and the zeta potential was −12.2 mV. In addition, the PDI in series [1] (0.3125 μM in PBS) came to 0.2022. Also, in series [1] (setting [6]), the “mean size (hydrodynamic diameter)” value stood at 51.10 nm and the zeta potential is −11.7 mV. For the same compound, the PDI in series [1] (0.625 μM in PBS) was 0.0673. In series [1] (1.25 μM in PBS from DMSO stock), the “mean size (hydrodynamic diameter)” value worked out at 142.50 nm and the zeta potential is listed as −12.5 mV. In series [1] (1.25 μM in PBS), this compound returned a PDI of 0.0108. In series [1] (2.5 μM in PBS from DMSO stock), the “mean size (hydrodynamic diameter)” value came to 91.19 nm and the zeta potential is −27.5 mV. Moreover, the PDI in series [1] (2.5 μM in PBS) was 0.1585. Further, in series [1] (3.75 μM in PBS from DMSO stock), the “mean size (hydrodynamic diameter)” value is given as 39.28 nm and the zeta potential is −1.4 mV. This compound gave a PDI in series [1] (3.75 μM in PBS) of 0.1229. Besides, in series [1] (5 μM in PBS from DMSO stock), the “mean size (hydrodynamic diameter)” value is given as 43.14 nm and the zeta potential is reported as −0.5 mV. In series [1] (5 μM in PBS), this compound had a PDI of 0.0264. Further, in series [2], the “TEAC from DMSO” value came out at 2.40 and the “TEAC from THF” value is given as 2.933. In addition, the FRAP in series [3] is 0.460. Moreover, in series [4], the “type of aggregates formed” value was “J-type (head-to-tail) aggregates” and the “change of UV spectrum with increasing ratio of PBS” value was “bathochromic shift”.

A word on the melting point: it is the temperature of the solid-liquid transition.
